# Test results published in patent US12441768B2, “Compositions and methods for treating endometriosis” (EndoMet Biosciences, Inc., priority 2018, dated 2025).
# Where a SMILES comes first, the peptide text is derived from it. [ ]: non-standard residue; d: D form. The star is where a group is joined. ξ: configuration not given here. NMeW = CN[C@@H](Cc1c[nH]c2ccccc12)C(=O)O; Palmitoyl = CCCCCCCCCCCCCCCC(=O)*; ξαMeV = CC(C)C(C)(N)C(=O)O; ξαMeS = CC(N)(CO)C(=O)O; GABA = NCCCC(=O)O
# Assays:
# [1] = biological target: Wnt-responsive promoter (TCF/LEF); test: Wnt-dependent luciferase reporter assay; assay type: cell-based, murine
# Procedure: The luciferase reporter assay is commonly used as a tool to study gene expression at the transcriptional level. Peptides from libraries described herein were characterized for ability to suppress transcription in cells with luciferase expression controlled by a Wnt-responsive promoter. Peptides were added to cells transfected with luciferase gene downstream of a Wnt-responsive promoter. Cells were stimulated with Wnt3a protein and incubated with peptides from libraries described herein. Luminescence was recorded to determine the peptides with the highest β-catenin-inhibiting activity. EC50 values were calculated based on the inhibition of luminescence and expressed as concentration (uM) in Table 5.
# Peptides were assessed for their ability to inhibit Wnt signaling. Murine 3T3 fibroblasts that express luciferase under a Wnt-responsive promoter (TCF/LEF) (Enzo Life Sciences, Farmingdale, NY) were stimulated with Wnt3a in the presence of increasing concentrations of peptide inhibitor (Hit 1: SEQ ID NO:217, Hit 2: SEQ ID NO:224, Hit 3: SEQ ID NO:228, Hit 4: SEQ ID NO:227, Hit 5: SEQ ID NO:220, Hit 6: SEQ ID NO:168. Hit 7: SEQ ID NO:226) or with vehicle control (FIG. 2A).
# [2] = biological target: T1, β-catenin (Homo sapiens, UniProt P35222); test: KD50 measurement using competitive fluorescence polarization (FP) with labelled TCF4; assay type: binding; settings: fluorescence polarization, β-catenin; for Kd: read-out: β-Cat FP KD
# T1 sequence (P35222 1-781): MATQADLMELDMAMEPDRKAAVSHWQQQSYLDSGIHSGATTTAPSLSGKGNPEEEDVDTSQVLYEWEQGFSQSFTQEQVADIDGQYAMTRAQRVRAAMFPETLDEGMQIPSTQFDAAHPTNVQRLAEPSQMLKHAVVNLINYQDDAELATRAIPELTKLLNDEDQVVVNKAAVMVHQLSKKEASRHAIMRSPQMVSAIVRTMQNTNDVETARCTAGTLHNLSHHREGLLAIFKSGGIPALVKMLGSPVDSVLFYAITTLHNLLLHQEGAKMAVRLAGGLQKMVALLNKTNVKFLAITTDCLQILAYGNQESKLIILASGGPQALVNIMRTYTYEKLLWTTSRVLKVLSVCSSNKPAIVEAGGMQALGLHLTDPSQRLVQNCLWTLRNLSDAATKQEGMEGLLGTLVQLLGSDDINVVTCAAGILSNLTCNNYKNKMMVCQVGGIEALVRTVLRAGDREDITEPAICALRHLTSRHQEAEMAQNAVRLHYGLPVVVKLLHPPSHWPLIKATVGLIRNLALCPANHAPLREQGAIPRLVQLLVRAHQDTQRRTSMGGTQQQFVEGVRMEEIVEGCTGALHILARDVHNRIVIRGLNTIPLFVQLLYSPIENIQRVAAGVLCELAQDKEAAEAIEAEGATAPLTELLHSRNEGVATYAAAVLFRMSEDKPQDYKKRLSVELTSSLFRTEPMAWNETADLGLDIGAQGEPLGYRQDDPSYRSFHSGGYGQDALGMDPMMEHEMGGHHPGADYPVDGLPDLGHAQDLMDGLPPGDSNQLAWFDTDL
# Outline: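 First, β-catenin at 100 nM is mixed with 5 nM labelled TCF4 at room temperature. Next, compound is added across serial dilutions (10 nM to 30 uM). Finally, fluorescence polarization is measured (ex 470 nm, em 520 nm); experiments are done three times.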
Compound,EC50 [1] [µM],Kd [2] [nM],β-Cat FP Hill slope [2]
CC[C@H](C)[C@H]1NC(=O)[C@@H](CO)NC(=O)[C@@H](CCC(=O)O)NC(=O)[C@H](Cc2c[nH]c3ccccc23)NC(=O)CCCCn2cc(nn2)CC(C(N)=O)NC(=O)[C@H](Cc2c[nH]c3ccccc23)NC(=O)[C@H](C(C)C)NC(=O)[C@H](CCCNC(=N)N)NC(=O)[C@@H](CCC(N)=O)NC(=O)[C@@H](C(C)C)NC(=O)[C@@H](Cc2cnc[nH]2)NC(=O)[C@H](CCC(=O)O)NC(=O)[C@H](CC(=O)O)NC(=O)[C@H](CC(C)C)NC1=O (stereo partly shown) [compound 33],> 30,> 30000,
CC[C@H](C)[C@H](NC(=O)[C@H](CO)NC(=O)[C@H](CCC(=O)O)NC(=O)[C@H](Cc1c[nH]c2ccccc12)NC(=O)[C@@H](N)CCSC)C(=O)N[C@@H](CC(C)C)C(=O)N[C@@H](CC(=O)O)C(=O)N[C@@H](CCC(=O)O)C(=O)N[C@@H](Cc1c[nH]cn1)C(=O)NC(C)(C(=O)N[C@@H](CCC(N)=O)C(=O)N[C@@H](CCCNC(=N)N)C(=O)N[C@H](C(=O)N[C@@H](Cc1c[nH]c2ccccc12)C(=O)NCC(N)=O)C(C)C)C(C)C (stereo partly shown) [compound 34] (HELM PEPTIDE1{M.W.E.S.I.L.D.E.H.[CC(C)C(C)(N[*:1])C(=O)[*:2]].Q.R.V.W.G.[am]}$$$$V2.0),> 30,< 400,0.92
CC[C@H](C)[C@H](NC(=O)C(C)(CO)NC(=O)[C@H](CCC(=O)O)NC(=O)[C@H](Cc1c[nH]c2ccccc12)NC(=O)[C@@H](N)CCSC)C(=O)N[C@@H](CC(C)C)C(=O)N[C@@H](CC(=O)O)C(=O)N[C@@H](CCC(=O)O)C(=O)N[C@@H](Cc1c[nH]cn1)C(=O)N[C@H](C(=O)N[C@@H](CCC(N)=O)C(=O)N[C@@H](CCCNC(=N)N)C(=O)N[C@H](C(=O)N[C@@H](Cc1c[nH]c2ccccc12)C(=O)NCC(N)=O)C(C)C)C(C)C (stereo partly shown) [compound 35] (HELM PEPTIDE1{M.W.E.[CC(CO)(N[*:1])C(=O)[*:2]].I.L.D.E.H.V.Q.R.V.W.G.[am]}$$$$V2.0),> 30,< 400,0.96
CC[C@H](C)[C@H](NC(=O)[C@H](CO)NC(=O)[C@H](CCC(=O)O)NC(=O)[C@H](Cc1c[nH]c2ccccc12)N(C)C(=O)[C@@H](N)Cc1c[nH]c2ccccc12)C(=O)N[C@@H](CC(C)C)C(=O)N[C@@H](CC(=O)O)C(=O)N[C@@H](CCC(=O)O)C(=O)N[C@@H](Cc1c[nH]cn1)C(=O)N[C@H](C(=O)N[C@@H](CCC(N)=O)C(=O)N[C@@H](CCCNC(=N)N)C(=O)N[C@H](C(=O)N[C@@H](Cc1c[nH]c2ccccc12)C(=O)NCC(N)=O)C(C)C)C(C)C [compound 36] (HELM PEPTIDE1{W.[meW].E.S.I.L.D.E.H.V.Q.R.V.W.G.[am]}$$$$V2.0),> 30,< 400,0.87
CC[C@H](C)[C@H](NC(=O)[C@H](CO)NC(=O)[C@H](CCC(=O)O)NC(=O)[C@H](Cc1c[nH]c2ccccc12)N(C)C(=O)[C@H](Cc1c[nH]c2ccccc12)NC)C(=O)N[C@@H](CC(C)C)C(=O)N[C@@H](CC(=O)O)C(=O)N[C@@H](CCC(=O)O)C(=O)N[C@@H](Cc1c[nH]cn1)C(=O)N[C@H](C(=O)N[C@@H](CCC(N)=O)C(=O)N[C@@H](CCCNC(=N)N)C(=O)N[C@H](C(=O)N[C@@H](Cc1c[nH]c2ccccc12)C(=O)NCC(N)=O)C(C)C)C(C)C [compound 37] (HELM PEPTIDE1{[meW].[meW].E.S.I.L.D.E.H.V.Q.R.V.W.G.[am]}$$$$V2.0),> 30,< 400,0.7
CC[C@H](C)[C@H](NC(=O)C(C)(CO)NC(=O)[C@H](CCC(=O)O)NC(=O)[C@H](Cc1c[nH]c2ccccc12)N(C)C(=O)[C@@H](N)Cc1c[nH]c2ccccc12)C(=O)N[C@@H](CC(C)C)C(=O)N[C@@H](CC(=O)O)C(=O)N[C@@H](CCC(=O)O)C(=O)N[C@@H](Cc1c[nH]cn1)C(=O)NC(C)(C(=O)N[C@@H](CCC(N)=O)C(=O)N[C@@H](CCCNC(=N)N)C(=O)N[C@H](C(=O)N[C@@H](Cc1c[nH]c2ccccc12)C(=O)NCC(N)=O)C(C)C)C(C)C (stereo partly shown) [compound 38] (HELM PEPTIDE1{W.[meW].E.[CC(CO)(N[*:1])C(=O)[*:2]].I.L.D.E.H.[CC(C)C(C)(N[*:1])C(=O)[*:2]].Q.R.V.W.G.[am]}$$$$V2.0),> 30,< 400,0.9
CCCCCCCCCCCCCCCC(=O)NCC(=O)N[C@@H](Cc1c[nH]c2ccccc12)C(=O)N(C)[C@@H](Cc1c[nH]c2ccccc12)C(=O)N[C@@H](CCC(=O)O)C(=O)NC(C)(CO)C(=O)N[C@H](C(=O)N[C@@H](CC(C)C)C(=O)N[C@@H](CC(=O)O)C(=O)N[C@@H](CCC(=O)O)C(=O)N[C@@H](Cc1c[nH]cn1)C(=O)NC(C)(C(=O)N[C@@H](CCC(N)=O)C(=O)N[C@@H](CCCNC(=N)N)C(=O)N[C@H](C(=O)N[C@@H](Cc1c[nH]c2ccccc12)C(=O)O)C(C)C)C(C)C)[C@@H](C)CC (stereo partly shown) [compound 398] (Palmitoyl-GW[NMeW]E[ξαMeS]ILDEH[ξαMeV]QRVW-OH),7.5 to 15,,
CCCCCCCCCCCCCCCC(=O)NCCCC(=O)N[C@@H](Cc1c[nH]c2ccccc12)C(=O)N(C)[C@@H](Cc1c[nH]c2ccccc12)C(=O)N[C@@H](CCC(=O)O)C(=O)NC(C)(CO)C(=O)N[C@H](C(=O)N[C@@H](CC(C)C)C(=O)N[C@@H](CC(=O)O)C(=O)N[C@@H](CCC(=O)O)C(=O)N[C@@H](Cc1c[nH]cn1)C(=O)NC(C)(C(=O)N[C@@H](CCC(N)=O)C(=O)N[C@@H](CCCNC(=N)N)C(=O)N[C@H](C(=O)N[C@@H](Cc1c[nH]c2ccccc12)C(=O)O)C(C)C)C(C)C)[C@@H](C)CC (stereo partly shown) [compound 400] ({Palmitoyl-GABA}-W[NMeW]E[ξαMeS]ILDEH[ξαMeV]QRVW-OH),7.5 to 15,,
"CC[C@H](C)[C@H](NC(=O)[C@H](CO)NC(=O)[C@H](CCC(N)=O)NC(=O)[C@H](C)N(C)C(=O)[C@H](Cc1c[nH]c2ccccc12)NC(C)=O)C(=O)N[C@@H](CC(C)C)C(=O)N[C@@H](CC(=O)O)C(=O)N[C@H]1CCC(=O)NCCCC[C@@H](C(=O)N[C@H](C(=O)N[C@@H](Cc2c[nH]c3ccccc23)C(=O)NCC(N)=O)C(C)C)NC(=O)[C@H](CCC(N)=O)NC(=O)[C@H](C2CCCCC2)NC(=O)[C@H](Cc2c[nH]cn2)NC1=O [compound 470] (HELM PEPTIDE1{[ac].W.[meA].Q.S.I.L.D.E.H.[O=C([C@@H](N[*:1])C1CCCCC1)[*:2]].Q.K.V.W.G.[am]}$PEPTIDE1,PEPTIDE1,9:R3-13:R3$$$V2.0)",,< 400,0.81
"CCCCCCCCCCCC(=O)N[C@@H](Cc1c[nH]c2ccccc12)C(=O)N(C)[C@@H](C)C(=O)N[C@@H](CCC(N)=O)C(=O)N[C@@H](CO)C(=O)N[C@H](C(=O)N[C@@H](CC(C)C)C(=O)N[C@@H](CC(=O)O)C(=O)N[C@H]1CCC(=O)NCCCC[C@@H](C(=O)N[C@H](C(=O)N[C@@H](Cc2c[nH]c3ccccc23)C(=O)NCC(N)=O)C(C)C)NC(=O)[C@H](CCC(N)=O)NC(=O)[C@H](C2CCCCC2)NC(=O)[C@H](Cc2c[nH]cn2)NC1=O)[C@@H](C)CC [compound 471] (HELM PEPTIDE1{[CCCCCCCCCCCC(=O)[*:2]].W.[meA].Q.S.I.L.D.E.H.[O=C([C@@H](N[*:1])C1CCCCC1)[*:2]].Q.K.V.W.G.[am]}$PEPTIDE1,PEPTIDE1,9:R3-13:R3$$$V2.0)",,< 400,
"CCCCCCCCCCCC(=O)N[C@@H](Cc1c[nH]c2ccccc12)C(=O)N1CCC[C@H]1C(=O)N[C@@H](CCC(N)=O)C(=O)N[C@@H](CO)C(=O)N[C@H](C(=O)N[C@@H](CC(C)C)C(=O)N[C@@H](CC(=O)O)C(=O)N[C@H]1CCC(=O)NCCCC[C@@H](C(=O)N[C@H](C(=O)N[C@@H](Cc2c[nH]c3ccccc23)C(=O)NCC(N)=O)C(C)C)NC(=O)[C@H](CCC(N)=O)NC(=O)[C@H](C2CCCCC2)NC(=O)[C@H](Cc2c[nH]cn2)NC1=O)[C@@H](C)CC [compound 473] (HELM PEPTIDE1{[CCCCCCCCCCCC(=O)[*:2]].W.P.Q.S.I.L.D.E.H.[O=C([C@@H](N[*:1])C1CCCCC1)[*:2]].Q.K.V.W.G.[am]}$PEPTIDE1,PEPTIDE1,9:R3-13:R3$$$V2.0)",,< 400,
H-GGGDDLGANDELISFKDEGEQEEKSSENSSAERDLADVKSSLVNEK-NH2 [compound 266],,< 400,0.88
